{
  "source": "patent US20100047227A1",
  "about": "“NOVEL ANTICANCER CATHEPSIN FORMULATIONS AND ANTICANCER AGENT FOR USE IN COMBINED ANTICANCER THERAPY” (priority 2006, published 2010)",
  "key": {"[1]": {"test_system": "human prostate cancer ALVA-41 cells", "assay": "survival rate of cells (Cell Counting Kit-8), ALVA-41 cells", "format": "cell-based", "conditions": "ALVA-41 cells, 20 hours, neutral pH, 10-100 μg/ml", "experimental": "The survival rate of cells was measured by Cell Counting Kit-8 in accordance with a manufacturer's manual. The method will be described briefly as follows. A 96-well (each 100 μl) plate was inoculated with cells (1×10^4 cells) and incubated for 24 hours, and the cells were incubated in a non-serum culture medium Opti-MEM together with a given concentration of each cathepsin purified from rat stomach (References #27 and #60-#62). Thereafter, the kit reagent (10 μl) was added to each well and the wells were incubated for another 1 hour. After incubation, each well was measured at the absorbance of 450 nm with a microplate reader.\nIn the figure, an indicating bar scale represents 50 μm. […] In the figure, an indicating bar scale represents 50 μm.\nIn this experiment, the survival rate of the ALVA-41 cells was measured by incubating the cells with cathepsin E of a given concentration in the presence or absence of pepstatin A (100 μM) at 37° C. and pH 7.4 for 20 hours. The data is represented as a percentage with respect to the value for non-treated cell group. The data were obtained as an average value±SD from the data obtained by four separate experiments. […] In this experiment, the HEK293 cells were incubated together with a given concentration of natural cathepsin E, wild-type recombinant and the active site mutant (D98A/D283A) at 37° C. and pH 7.4 for 20 hours. The survival rate of the cells was measured and represented as a percentage with respect to the value of the non-treated cell group. The data represents an average value±SD from the data obtained by four separate experiments. In the value, *p<0.001 is a corresponding value for the cells treated with the mutant. […] In this experiment, ALVA-41 cells were treated solely with cathepsin E of a given concentration in the same manner as for FIG. 2A and the culture supernatant was recovered, followed by centrifuging to remove the precipitate and transferring a portion ([…]) of the supernatant to a freshly prepared culture of ALVA-41 cells. Thereafter, the cells were incubated at 37° C. and pH 7.4 for 20 hours in the absence (black round mark) or presence (white round mark) of pepstatin A (100 μM) and measured for the survival rate of the cells. The cell survival rate is represented as a percentage with respect to the value of the cells treated with the culture supernatant of the ALVA-41 cells treated with physiological saline. The data is represented as an average value±SD from the data obtained by four separate experiments. […] The cathepsin E activity (on the upper panel) and the cytotoxic activity (on the lower panel) of each column fraction were determined using freshly prepared ALVA-41 cells and a cathepsin E-specific substrate. The cell survival rate of each fraction treated with the protein at a given final concentration is represented as a percentage with respect to the value of the cells treated with physiological saline and as an average value±SD from the data obtained by four separate experiments. The cathepsin E activity is represented as a percentage of the total activity in the culture supernatant, and the data is represented as an average±SD from the data obtained by three separate experiments."}, "FasL": {"test_system": "FasL", "assay": "ELISA of FasL in culture supernatant of ALVA-41 cells", "format": "cell-based, human", "conditions": "ALVA-41 cells treated with cathepsin E 100 μg/ml, 20 hours", "experimental": "ALVA-41 cells (1×10^6 cells per a 6-cm dish) were incubated together with cathepsin E (100 μg/ml) in a non-serum culture medium Opti-MEM at 37° C. for 20 hours. The resulting culture supernatant was measured for amounts of TRAIL, FasL and TNF-α with ELSA kit in a manner as will be described briefly. A sample and a standard product (each 100 μl) were added to a microtiter plate immobilized with a monoclonal antibody to the corresponding member of the TNF family and incubated at room temperature for 2 hours. Then, the wells of the microtiter plate were washed four times with a washing buffer and 100 μl of biotin-conjugated monoclonal antibody was added to each wells of the plate, following by incubation at room temperature for 1 hour and washing the wells of the plate completely. Then, they were incubated together with 100 μl of streptoavidin-conjugated horseradish peroxidase at room temperature for 30 minutes and washed four times with a washing buffer. […] After an addition of a reaction terminating solution, the wells were measured at 450 nm with microreader.\nIn this experiment, the ALVA-41 cells were treated with cathepsin E (100 μg/ml) or physiological saline at 37° C. and pH 7.4 for 20 hours and measured for the amounts of TNF-α, FasL and TRAIL in the culture supernatant by ELSA. […] Apoptosis of the ALVA-41 cells was measured using the culture supernatant after immunoprecipitation. […]"}},
  "data": [
    {"substance": "cathepsin E", "values": [
      {"measurement": "number of living cells", "setting": "[1]", "value": "decreases the number of survived carcinoma cells in a dose-dependent fashion"},
      {"measurement": "FasL in culture supernatant", "setting": "FasL", "value": "little detected"}
    ]}
  ]
}
